For one experiment, the system named is leptin. Briefly: Expression of leptin. The experiment is classed as cell-based.
For the next experiment, the system named is ANGPT2 (angiopoietin 2). As to the kind of experiment: Gene expression by Real-time PCR: ANGPT2. The following applies: DMSO control = 100. The experiment is classed as cell-based. An excerpt:
(§1) Determination of gene expression by Real-time PCR method (Brilliant QPCR, Agilent Technologies): The real-time polymerase chain reactions further confirm the results obtained from micro array analysis. The Real-time PCR results (shown below) confirmed that Compound Y3 and YM increase the expression of the genes: ANGPT2, DDIT3, LIF and NFKB1Z
For orientation: Real-time PCR tracks product formation cycle by cycle.

Experiment [1] concerns RAB3B, member RAS oncogene family. Briefly: Microarray gene expression in ES2 cells: RAB3B. Type of experiment: cell-based, human. The source says: (§2) The composition comprises bioactive compounds from natural plants or synthesis. The majority of the plants are from the Sapindaceae family, which has 140-150 genera with 1400-2000 species. The program is based on our purification methods and biological assays including the MTT assay See International Application No. PCT/US05/31900, filed Sep. 7, 2005, U.S. Ser. No. 11/289,142, filed Nov. 28, 2005, and U.S. Ser. No. 11/131,551, filed May 17, 2005, and PCT/US2008/002086, 1188-ALA-PCT, filed Feb. 15, 2008, the contents of which are incorporated herein by reference. The details of Analysis of gene expression of ES2 cells after Y-treatment by Microarray, Data Analysis Methods and Western blot in PCT/US2008/002086, 1188-ALA-PCT, filed Feb. 15, 2008, the contents of which are incorporated herein by reference

Another experiment deals with angiopoietin-like 4. As to the kind of experiment: Microarray gene expression in ES2 cells: angiopoietin-like 4. The experiment is classed as cell-based, human. The note with it: micro array.
Source text: as §2
(§3) Angiogenesis is a process involving the growth of new blood vessels. It is a normal process in growth and development. However, this is also a fundamental step in the transition of tumors from a dormant state to a malignant state. The angiopoietins are protein growth factors that modulate angiogenesis. […]

The test system of experiment [2] is DDIT3 (DNA-damage-inducible transcript 3). Briefly: Gene expression by Real-time PCR: DDIT3. The experiment is classed as cell-based. The note with it: DMSO control = 100.
Source text: as §1

The test system of a further experiment is Angiopoietin 2 (Ang2). Briefly: Up regulation of Angiopoietin 2 (Ang2) in ES2 cells. Type of experiment: cell-based, human. The following applies: study in PCT/US2008/002086. An excerpt: The results of study in PCT/US2008/002086, 1188-ALA-PCT, filed Feb. 15, 2008 are incorporated herein by reference.
In experiment [3] the test system is potassium channel, subfamily U, member 1 (KCNU1). Briefly: Microarray gene expression in ES2 cells: potassium channel. The note with it: ID 237273_at. The experiment is classed as cell-based, human.
Source text: as §2

For experiment [4], the system named is ES2 (human ovarian cancer) xenograft tumor. As to the kind of experiment: Genesis of blood vessels in xenograft tumor treated with compound Y. The experiment is classed as in vivo, Athymic Nu/Nu mice. The following applies: ES2 i.p. xenograft, 2.5 mg/kg i.p. daily days 10-15 and 18-22, H&E sections. As for the experimental part:
Method: Athymic Nu/Nu mice (5-6 weeks old) are divided into two groups (1 and 2) with 5 animals in each group. On day 0, all mice were transplanted intra-peritoneally with one million ES2 (human ovarian cancer) cells. Animals were randomly divided into two groups:
Group 2: Drug-treatment group. On days 10-15 and 18-22, animals received daily drug administration of Xanifolia-Y, by i.p. route at dosage of 2.5 mg/kg.
Animals with high tumor burden were euthanized and solid tumors were taken out from these mice (between 18-27 days). Tumor tissues fixed with formalin at room temperature. The fixed tissues were sectioned and stained with Haematoxylin and eosin (H&E). The red blood cells inside the micro blood vessels were identified under a microscope.

The test system of experiment [5] is Leishmania Major (promastigotes). Briefly: Cell growth of Leishmania parasites by MTT assay. The following applies: Leishmania major, read-out: IC50, cytotoxic to Leishmania Major (promastigotes). The experiment is classed as cell-based. As for the experimental part: Method: Leishmania parasites (Leishmania major: MRHO/SU/59/P/LV39) were grown in culture medium in a T75 flask at room temperature. Promastigotes of Leishmania major (approximately 40 million per ml) were used in the experiment. 1.2 ml cell culture was transferred to a well of the 24-wells plate. Saponin Y10 (0.2 ml in medium) with different concentrations (final 6.25-200 ug/ml) was added to culture and cells were grown for 1-5 days at room temperature. At the end of drug-treatment, 150 ul of MTT (5 mg/ml in PBS) was added to each well and incubated for 4 hours. Formazan formed in cells was dissolved with DMSO and the OD at 490 nm was determined by an ELISA reader.
On the technique in general: Formazan colour is commonly taken as a measure of viable cells.

In another experiment the test system is Fibronectin. Briefly: Fibronectin secretion, lung carcinoma cells (H460). Type of experiment: cell-based, human. The following applies: Homo sapiens, NCI-H460; H460 cells; 20 ug/ml. Here is the method: Reduction of Fibronectin secretion from ES2 cells after xanifolia-Y treatment. • (Results of F1, F3, F4, F5, F7, F8, F11, F12A, F15, F16, F17) Data in PCT/US2008/002086, 1188-ALA-PCT, filed Feb. 15, 2008 are incorporated herein by reference • (F11) For lung carcinoma cells (H460), at concentration of 20 ug/ml, there are inhibitions of Fibronectin secretion ranged from 20-60%. • (F12A) For bladder carcinoma cells (HTB-9), Xanifolia-Y (10 ug/ml) inhibits 50% of Fibronectin secretion. • (F15) In liver HepG2 cells. 10 ug/ml of xanifolia-Y inhibits 42% secretion of Fibronectin. • (F16) Incubation of brain glioblastoma T98G cells with 10 ug/ml of xanifolia-Y inhibits 27% Fibronectin secretion and with 20 ug/ml Y inhibits 74% Fibronectin secretion. • (F17) For skin SK-MeI-5 cells, the inhibition is 40-57% with 20 ug/ml of Xanifolia-Y.

A further experiment concerns angiopoietin 1. Briefly: Microarray gene expression in ES2 cells: angiopoietin 1. Type of experiment: cell-based, human. The following applies: micro array.
Source text: as §2, §3

≈ marks a conversion by molar mass, not a printed value.

With `C/C=C(/C)C(=O)O[C@H]1[C@H](OC(=O)/C(C)=C\C)[C@@]2(CO)C(CC1(C)C)C1=CCC3[C@@]4(C)CC[C@H](O[C@@H]5OC(C(=O)O)[C@@H](O)[C@@H](O[C@@H]6O[C@@H](CO)[C@@H](O)C6O)C5O[C@@H]5OC(CO)[C@H](O)[C@@H](O)C5O)C(C)(C)C4CC[C@@]3(C)[C@]1(C)[C@@H](O)[C@H]2O` (stereo partly drawn) [Y, 3-O-[β-D-galactopyranosyl(1→2)]-α-L-arabinofuranosy (1→3)-β-D-glucuronopyranosyl-21,22-O-diangeloyl-3β, 15α, 16α, 21β, 22α, 28-hexahydroxyolean-12-ene], in the experiment on leptin, the expression of leptin result is on record as “inhibit”. The “ANGPT2 expression, % of control” value in the experiment on ANGPT2 (angiopoietin 2) is 300 % of control. In addition, the “RAB3B expression, treated/D (DMSO control)” value in [1] (ID 205924_at) was −1.7; in experiment [1] (ID 205925_s_at), −1.2; in [1] (ID 227123_at), −1.6; in experiment [1] (ID 242629_at), −3.5. The “gene expression of angiopoietin-like 4” value in the experiment with angiopoietin-like 4 is on record as “inhibit”. The “DDIT3 expression, % of control” value in experiment [2] is 213 % of control. In the experiment with Angiopoietin 2 (Ang2), the “Angiopoietin 2 (Ang2) in ES2 cells” value is recorded as “Up regulation”. For the same molecule, in experiment [3], the “KCNU1 expression, treated/D (DMSO control)” value was −4.0. The figures for the “blood vessels in tumor sections” value in experiment [4] (listed as Xanifolia Y) and in experiment [4] (listed as Xanifolia-Y) were “More blood vessels were observed in the control Group 1 than those in the drug-treated Group 2” and “more blood vessels were observed in the control Group1 than those in the drug-treated Group 2”, respectively. For the same molecule, the IC50 in experiment [5] was found to be 15 µg/mL (≈ 13.1 µM). The inhibition at 20 µg/mL in the experiment on Fibronectin lay within 20 to 60%. In the experiment with angiopoietin 1, the “gene expression of angiopoietin 1” value is “inhibit”.

A word on the IC50: it is the concentration at which inhibition is half-maximal. As usually defined, the inhibition is the share of the control response that was lost under treatment.

(Values after US8586719B2, “Triterpenes for modulating gene expression and cell membrane, and as antiprotozoal agents” (Pacific Arrow Limited, priority 2005, dated 2013).)
